Test results published in US8138197B2, “Spirochromanon derivatives” (MSD K.K., priority 2007, dated 2012).

What was measured:
[1] = biological target: human ACC1 (Homo sapiens, UniProt Q13085); test: Acetyl CoA carboxylase (ACC) activity inhibition test, human ACC1; format: biochemical; settings: 1 μmol/liter compound; [14C] bicarbonate fixation, 37° C., 40 minutes; read-out: Inhibition (%) by 1 μmol/liter Chemical, human ACC1
Description: (§1) A. Pharmacological Test Example (Acetyl CoA Carboxylase (ACC) Activity Inhibition Test)
(§2) A test compound is dissolved in dimethyl sulfoxide (DMSO) to a concentration of 10 mM and then diluted with DMSO to give a 100-fold concentrated solution of the compound compared with target assay concentration. The ACC enzyme activity inhibition test is carried out according to a modification of Thampy & Wakil's method (J. Biol. Chem., Vol. 260, pp. 6318-6323 (1985)). Concretely, 0.8 μl of the diluted test compound is added to each well of 96-well assay plate (Perkin Elmer Opti Plate), then 40 μl of a substrate solution (50 mM Hepes sodium (pH 7.5), 2 mM DTT, 10 mM ATP, 500 μM acetyl CoA, 0.17 mM NaH[^14C]O3 (58 mCi/mmol, by Amersham), 8 mM NaHCO3) is added to each well, and 40 μL of an enzyme solution ([…] human ACC1 or human ACC2, 50 mM Hepes sodium (pH 7.5), 2 mM DTT, 40 mM MgCl2, 40 mM tripotassium citrate 1 mg/ml fetal bovine serum albumin) is added thereto. Then, the upper side of the plate is sealed up, and the plate is incubated with gently stirring at 37° C. for 40 minutes. Next, 20 μl of 1 N HCl is added to each well to stop the enzyme reaction, and the assay plate is stirred overnight to remove the unreacted NaH[^14C]O3. Next, 100 μl of a scintillator (Perkin Elmer's Microscinti 40) is added to each well and the plate is stirred, then the radioactivity of the fixed [^14C] is counted using a microplate scintillation counter (Perkin Elmer's Topcount), the radioactivity of which represents the enzyme activity in each well. The human ACC1 and human ACC2 enzyme-inhibition activities of the test compounds are calculated, based on the radioactivity of the well added by DMSO without test compound as a control.

[2] = biological target: human ACC2 (Homo sapiens, UniProt O00763); test: Acetyl CoA carboxylase (ACC) activity inhibition test, human ACC2; format: biochemical; settings: 1 μmol/liter compound; [14C] bicarbonate fixation, 37° C., 40 minutes; read-out: Inhibition (%) by 1 μmol/liter Chemical, human ACC2
Chain of human ACC2 (O00763 whole entry): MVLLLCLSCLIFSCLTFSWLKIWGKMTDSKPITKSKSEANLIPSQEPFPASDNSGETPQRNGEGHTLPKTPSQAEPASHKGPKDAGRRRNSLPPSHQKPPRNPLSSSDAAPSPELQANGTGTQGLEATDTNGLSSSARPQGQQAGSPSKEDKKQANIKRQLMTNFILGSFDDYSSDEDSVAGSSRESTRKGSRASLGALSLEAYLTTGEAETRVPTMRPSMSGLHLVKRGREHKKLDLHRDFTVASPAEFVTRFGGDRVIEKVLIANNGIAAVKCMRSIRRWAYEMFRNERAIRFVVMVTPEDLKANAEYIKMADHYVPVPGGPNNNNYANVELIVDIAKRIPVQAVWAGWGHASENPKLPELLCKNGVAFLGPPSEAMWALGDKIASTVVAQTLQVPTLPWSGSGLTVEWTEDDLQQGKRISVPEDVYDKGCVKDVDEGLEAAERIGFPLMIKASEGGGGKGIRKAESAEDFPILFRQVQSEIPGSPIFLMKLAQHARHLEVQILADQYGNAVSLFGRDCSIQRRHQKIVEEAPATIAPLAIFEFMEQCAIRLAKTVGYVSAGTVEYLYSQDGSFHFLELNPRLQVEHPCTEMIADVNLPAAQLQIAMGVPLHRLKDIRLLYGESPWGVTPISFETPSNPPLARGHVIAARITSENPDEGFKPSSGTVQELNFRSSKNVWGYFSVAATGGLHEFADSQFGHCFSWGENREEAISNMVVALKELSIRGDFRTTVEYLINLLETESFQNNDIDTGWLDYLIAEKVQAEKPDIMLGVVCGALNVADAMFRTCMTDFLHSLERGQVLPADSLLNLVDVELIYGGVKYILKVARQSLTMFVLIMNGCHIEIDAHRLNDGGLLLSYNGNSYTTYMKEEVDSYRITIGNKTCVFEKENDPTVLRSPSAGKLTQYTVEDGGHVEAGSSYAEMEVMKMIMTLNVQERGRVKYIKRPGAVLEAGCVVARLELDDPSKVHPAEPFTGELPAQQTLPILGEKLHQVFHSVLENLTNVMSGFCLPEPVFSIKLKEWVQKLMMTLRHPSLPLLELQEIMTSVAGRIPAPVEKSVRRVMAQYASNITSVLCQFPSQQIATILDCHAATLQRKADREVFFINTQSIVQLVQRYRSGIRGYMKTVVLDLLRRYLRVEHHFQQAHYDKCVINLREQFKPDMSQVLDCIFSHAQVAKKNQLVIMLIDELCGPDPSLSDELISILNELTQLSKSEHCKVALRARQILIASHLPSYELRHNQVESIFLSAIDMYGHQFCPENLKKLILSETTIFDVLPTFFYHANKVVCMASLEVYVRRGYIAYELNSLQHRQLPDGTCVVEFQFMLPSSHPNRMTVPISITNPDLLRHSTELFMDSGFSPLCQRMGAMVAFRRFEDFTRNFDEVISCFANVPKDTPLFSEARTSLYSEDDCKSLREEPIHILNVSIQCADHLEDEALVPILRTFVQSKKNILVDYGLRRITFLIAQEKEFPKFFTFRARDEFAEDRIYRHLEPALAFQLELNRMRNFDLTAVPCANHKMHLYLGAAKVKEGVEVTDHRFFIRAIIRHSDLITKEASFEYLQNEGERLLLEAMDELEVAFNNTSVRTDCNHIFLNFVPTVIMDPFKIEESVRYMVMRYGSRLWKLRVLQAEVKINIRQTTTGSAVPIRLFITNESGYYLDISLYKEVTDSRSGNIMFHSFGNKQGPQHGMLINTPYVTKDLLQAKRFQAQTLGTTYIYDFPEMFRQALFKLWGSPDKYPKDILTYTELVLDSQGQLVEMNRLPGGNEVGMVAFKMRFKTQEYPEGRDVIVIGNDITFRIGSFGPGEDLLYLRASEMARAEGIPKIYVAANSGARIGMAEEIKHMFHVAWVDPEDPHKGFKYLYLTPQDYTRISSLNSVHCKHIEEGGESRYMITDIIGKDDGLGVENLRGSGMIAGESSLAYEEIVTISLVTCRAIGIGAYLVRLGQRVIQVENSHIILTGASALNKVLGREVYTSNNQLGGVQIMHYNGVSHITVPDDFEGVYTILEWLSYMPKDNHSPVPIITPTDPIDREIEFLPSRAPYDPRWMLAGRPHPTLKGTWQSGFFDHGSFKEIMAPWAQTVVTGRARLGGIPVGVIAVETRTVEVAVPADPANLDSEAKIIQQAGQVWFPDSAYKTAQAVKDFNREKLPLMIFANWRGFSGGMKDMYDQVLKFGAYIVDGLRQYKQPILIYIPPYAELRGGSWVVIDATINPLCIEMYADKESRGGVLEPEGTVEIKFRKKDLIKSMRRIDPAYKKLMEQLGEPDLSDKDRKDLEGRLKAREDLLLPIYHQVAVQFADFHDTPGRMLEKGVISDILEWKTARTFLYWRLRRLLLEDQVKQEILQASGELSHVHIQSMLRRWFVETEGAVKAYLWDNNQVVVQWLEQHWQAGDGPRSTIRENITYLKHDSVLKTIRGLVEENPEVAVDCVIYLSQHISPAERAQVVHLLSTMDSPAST
Description: as §1, §2

SMILES | inhibition at 1 µM [1] | inhibition at 1 µM [2]
COc1cc(C(=O)N2CCC3(CC2)CC(=O)c2cc(-c4nnn[nH]4)ccc2O3)cc(OC)c1-c1ccccc1 [Example 5] | 94% | 97%
CCOc1cc(C(=O)N2CCC3(CC2)CC(=O)c2cc(-c4nnn[nH]4)ccc2O3)cc(OCC)c1-c1cnn(C)c1 [Example 12, 1′-{[3,5-Diethoxy-4-(1-methyl-1H-pyrazol-4-yl)phenyl]carbonyl}-6-(tetrazol-5-yl)spiro[chroman-2,4′-piperidin]-4-one] | 100% | 99%
CCOc1cc(C(=O)N2CCC3(CC2)CC(=O)c2cc(-c4cncc(C(=O)O)c4)ccc2O3)cc(OCC)c1-c1cnn(C)c1 [Example 25, 5-(1′-{[3,5-Diethoxy-4-(1-methyl-1H-pyrazol-4-yl)phenyl]carbonyl}-4-oxospiro[chroman-2,4′-piperidin]-6-yl)pyridine-3-carboxylic acid] | 100% | 99%
CCOc1cc(C(=O)N2CCC3(CC2)CC(=O)c2cc(-c4nnn[nH]4)ccc2O3)cc(OC)c1-c1cnn(C)c1 [Example 29, 1′-{[3-Ethoxy-5-methoxy-4-(1-methyl-1H-pyrazol-4-yl)phenyl]carbonyl}-6-(tetrazol-5-yl)spiro[chroman-2,4′-piperidin]-4-one] | 99% | 99%
CCOc1cc(C(=O)N2CCC3(CC2)CC(=O)c2cc(-c4ccnc(C(=O)O)c4)ccc2O3)cc(OCC)c1-c1cnn(C)c1 [Example 37, 4-(1′-{[3,5-Diethoxy-4-(1-methyl-1H-pyrazol-4-yl)phenyl]carbonyl}-4-oxospiro[chroman-2,4′-piperidin]-6-yl)pyridine-2-carboxylic acid] | 100% | 99%
Cn1cc(-c2ccc3c(c2)C(=O)CC2(CCN(C(=O)c4cc(-c5nnn[nH]5)c5ccn(C6CC6)c5c4)CC2)O3)cn1 [Example 42, 1′-{[1-Cyclopropyl-4-(tetrazol-5-yl)-1H-indol-6-yl]carbonyl}-6-(1-methyl-1H-pyrazol-4-yl)spiro[chroman-2,4′-piperidin]-4-one] | 98% | 99%
Cc1nn(-c2ccccn2)c2sc(C(=O)N3CCC4(CC3)CC(=O)c3cc(-c5nnn[nH]5)ccc3O4)cc12 [Example 51, 1′-[(3-Methyl-1-pyridin-2-yl-1H-thieno[2,3-c]pyrazol-5-yl)carbonyl]-6-(tetrazol-5-yl)spiro[chroman-2,4′-piperidin]-4-one] | 98% | 89%
Cn1nc(-c2ccccc2)c2ccc(C(=O)N3CCC4(CC3)CC(=O)c3cc(-c5nnn[nH]5)ccc3O4)cc21 [Example 56, 1′-[(1-Methyl-3-phenyl-1H-indazol-6-yl)carbonyl]-6-(tetrazol-5-yl)spiro[chroman-2,4′-piperidin]-4-one] | 99% | 98%

Further lines, results first:

inhibition at 1 µM [1] | inhibition at 1 µM [2] | SMILES
93% | 97% | CCOc1cc(C(=O)N2CCC3(CC2)CC(=O)c2cc(-c4nnn(COC(=O)C(C)(C)C)n4)ccc2O3)cc(OC)c1-c1cnn(C)c1 [Example 63, (5-{1′-[3-ethoxy-5-methoxy-4-(1-methyl-1H-pyrazol-4-yl)benzoyl]-4-oxospiro[chroman-2,4′-piperidin]-6-yl}-2H-tetrazol-2-yl)methylpivalate]
99% | 99% | COc1cc(C(=O)N2CCC3(CC2)CC(=O)c2cc(-c4ccc(C(N)=O)cn4)ccc2O3)cc(OC)c1-c1cnn(C)c1 [Example 68, 6-{1′-[3,5-dimethoxy-4-(1-methyl-1H-pyrazol-4-yl)benzoyl]-4-oxospiro[chroman-2,4′-piperidin]-6-yl}nicotinamide]
99% | 99% | CCOc1cc(C(=O)N2CCC3(CC2)CC(=O)c2cc(-c4ccc(C(=O)O)cn4)ccc2O3)cc(OCC)c1-c1cnn(C)c1 [Example 71, Sodium 6-{1′-[3,5-diethoxy-4-(1-methyl-1H-pyrazol-4-yl)benzoyl]-4-oxospiro[chroman-2,4′-piperidin]-6-yl}nicotinate]
99% | 99% | CCOc1cc(C(=O)N2CCC3(CC2)CC(=O)c2cc(-c4ccc(C(N)=O)cn4)ccc2O3)cc(OC)c1-c1cnn(C)c1 [Example 77, 6-{1′-[3-ethoxy-5-methoxy-4-(1-methyl-1H-pyrazol-4-yl)benzoyl]-4-oxospiro[chroman-2,4′-piperidin]-6-yl}nicotinamide]
99% | 99% | CCOc1cc(C(=O)N2CCC3(CC2)CC(=O)c2cc(-c4cnn(C)c4)ccc2O3)cc(OC)c1-c1cnn(C)c1 [Example 79, 1′-[3-Ethoxy-5-methoxy-4-(1-methyl-1H-pyrazol-4-yl)benzoyl]-6-(1-methyl-1H-pyrazol-4-yl)spiro[chroman-2,4′-piperidin]4-one]
